Assay results reported in ChEMBL document CHEMBL1201862, “PubChem BioAssay data set” (2004).
Each block holds one compound with its values, some of them ahead of it. Activity calls are given as the source filed them.

Key:
[1] = target: T1, Ubiquitin-conjugating enzyme E2 N (Homo sapiens, UniProt P61088); assay type: functional
T1 sequence (P61088 whole entry): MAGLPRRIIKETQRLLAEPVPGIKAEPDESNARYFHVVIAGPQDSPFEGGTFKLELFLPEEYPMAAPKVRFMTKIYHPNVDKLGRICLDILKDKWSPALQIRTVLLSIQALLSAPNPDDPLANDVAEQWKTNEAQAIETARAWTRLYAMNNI

Bcl-2-related protein A1 = target: T2, Bcl-2-related protein A1 (Mus musculus, UniProt Q07440); assay type: functional;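 further: confirmatory dose–response counterscreen on Bfl-1, used to check hits from a UBC13 polyubiquitin inhibitor campaign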
T2 sequence (Q07440 whole entry): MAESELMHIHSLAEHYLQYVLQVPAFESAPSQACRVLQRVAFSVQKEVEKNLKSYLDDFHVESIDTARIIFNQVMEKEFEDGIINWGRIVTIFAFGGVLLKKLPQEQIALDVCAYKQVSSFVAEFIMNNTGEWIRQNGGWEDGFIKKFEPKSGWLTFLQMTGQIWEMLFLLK

[2] = Trypanosoma cruzi growth suppression in host cells – NIH3T3 host cells, beta-gal luminescence, confirmation (AID 2044); assay type: functional, cell-based;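 further: intracellular parasites grown in NIH/3T3 mouse fibroblasts as host cells; luminescent beta-galactosidase reporter signal from transgenic T. cruzi replicating inside host cells; inhibitors lower the luminescence signal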
[3] = NIH3T3 cell viability loss – ATP luminescence, mouse fibroblasts, counter-screen, dose response (AID 2010); assay type: functional, cell-based;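 further: cells exposed to compound for about 90 hours before reading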
[4] = target: T1, Ubiquitin-conjugating enzyme E2 N; assay type: functional; remark: listed apart in the source
[5] = HIV-1 Vif–A3G interaction blockers – biochemical, TR-FRET, GST-Vif 1-94, biotin-A3G peptide, dose response retest, primary screen (AID 1117319); assay type: functional;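 further: TR-FRET signal of purified GST-Vif binding a biotinylated A3G peptide; inhibitors lower the FRET signal by blocking Vif and A3G binding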
[6] = growth inhibition of PfATP4-mutant resistant parasites – NITD609-resistant line, SYBR Green, dry powder, dose response (AID 1159571); assay type: functional, cell-based;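 further: parasites synchronized at ring stage by sorbitol before testing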
[7] = growth inhibition of yeast DHODH-expressing 3D7 parasites – SYBR Green, dry powder samples, dose response (AID 1159570); assay type: functional, cell-based;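 further: parasite growth measured after 72 hours of compound exposure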
[8] = toxicity to human HepG2 hepatoma cells – cell-based, plate reader, dry powder samples, cytotoxicity control, dose response (AID 1159569); assay type: functional;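 further: inhibitor potency with signal falling toward the positive control level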
[9] = Dd2 malaria parasite growth inhibition potency – SYBR Green, dry powder samples, dose response (AID 1159566); assay type: functional, cell-based;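 further: potency for growth inhibition with lower SYBR green DNA signal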
[10] = P. falciparum Dd2 growth inhibitors, dose response, SYBR Green, cherry-picked samples (AID 1159567); assay type: functional, cell-based
[11] = target: DNA dC->dU-editing enzyme APOBEC-3G (Homo sapiens, UniProt Q9HC16); assay type: functional;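 further: Dose-response counterscreen measuring inhibition of APOBEC3G DNA deaminase activity, run while confirming APOBEC3A inhibitors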
DNA dC->dU-editing enzyme APOBEC-3G, sequence (Q9HC16 whole entry): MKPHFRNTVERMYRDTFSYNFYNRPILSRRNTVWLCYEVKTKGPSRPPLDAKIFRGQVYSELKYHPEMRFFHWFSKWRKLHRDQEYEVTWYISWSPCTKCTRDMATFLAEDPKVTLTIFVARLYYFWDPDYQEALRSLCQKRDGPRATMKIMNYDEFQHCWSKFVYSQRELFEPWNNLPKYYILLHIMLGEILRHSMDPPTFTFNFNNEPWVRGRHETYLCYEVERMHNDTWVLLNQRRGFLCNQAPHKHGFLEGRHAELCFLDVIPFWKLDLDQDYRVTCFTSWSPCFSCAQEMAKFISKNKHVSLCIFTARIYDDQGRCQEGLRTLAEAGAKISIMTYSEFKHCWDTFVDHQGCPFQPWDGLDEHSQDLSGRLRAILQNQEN

[12] = target: DNA dC->dU-editing enzyme APOBEC-3A (Homo sapiens, UniProt P31941); test: Dose Response confirmation of small molecule APOBEC3A DNA Deaminase Inhibitors via a fluorescence-based single-stranded DNA deaminase assay. [Related pubchem assays (depositor defined):AID493011, AID493024]; assay type: functional
DNA dC->dU-editing enzyme APOBEC-3A, sequence (P31941 whole entry): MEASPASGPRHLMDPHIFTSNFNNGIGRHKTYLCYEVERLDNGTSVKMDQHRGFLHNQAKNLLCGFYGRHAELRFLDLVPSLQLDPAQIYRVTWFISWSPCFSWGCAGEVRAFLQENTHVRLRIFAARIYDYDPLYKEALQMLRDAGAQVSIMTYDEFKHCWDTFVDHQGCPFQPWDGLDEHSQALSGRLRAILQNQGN

Cytochrome P450 2C9 = Cytochrome P450 2C9 (Homo sapiens, UniProt P11712)
Cytochrome P450 2C9, sequence (P11712 whole entry, the tested form may be a part): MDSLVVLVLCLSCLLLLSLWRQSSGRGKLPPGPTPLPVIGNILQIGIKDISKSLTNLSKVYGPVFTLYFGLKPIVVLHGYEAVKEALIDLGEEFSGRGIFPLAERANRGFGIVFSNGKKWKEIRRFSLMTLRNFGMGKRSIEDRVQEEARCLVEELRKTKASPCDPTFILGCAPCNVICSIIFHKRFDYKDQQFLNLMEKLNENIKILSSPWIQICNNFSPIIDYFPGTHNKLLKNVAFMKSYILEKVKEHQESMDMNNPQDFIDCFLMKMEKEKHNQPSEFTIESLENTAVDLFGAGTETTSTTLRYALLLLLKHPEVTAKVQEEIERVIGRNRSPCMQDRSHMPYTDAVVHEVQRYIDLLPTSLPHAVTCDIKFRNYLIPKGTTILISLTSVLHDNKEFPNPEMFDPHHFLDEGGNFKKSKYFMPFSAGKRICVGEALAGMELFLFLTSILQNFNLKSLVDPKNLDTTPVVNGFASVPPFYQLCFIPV

[13] = target: T3, RNA-binding protein pos-1 (Caenorhabditis elegans, UniProt G5EF15); test: disruptors of C. elegans POS-1 RNA interaction – biochemical, fluorescence polarization, dose response (AID 1964);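 further: purified POS-1 fused to maltose binding protein made in E. coli; potency of compounds blocking POS-1 binding to fluorescent RNA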
T3 sequence (G5EF15 whole entry): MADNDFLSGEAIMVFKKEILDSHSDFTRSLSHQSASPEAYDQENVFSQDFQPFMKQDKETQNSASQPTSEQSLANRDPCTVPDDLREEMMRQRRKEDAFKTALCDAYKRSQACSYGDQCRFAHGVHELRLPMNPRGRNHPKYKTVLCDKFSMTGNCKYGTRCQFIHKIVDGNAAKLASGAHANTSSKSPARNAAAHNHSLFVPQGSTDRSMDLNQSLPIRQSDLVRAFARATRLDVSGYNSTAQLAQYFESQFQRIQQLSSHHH

[14] = target: T4, Zinc finger protein mex-5 (Caenorhabditis elegans, UniProt Q9XUB2); test: potency of MEX-5 RNA-binding blockers – biochemical, C. elegans, fluorescence polarization, dose response (AID 1960)
T4 sequence (Q9XUB2 whole entry): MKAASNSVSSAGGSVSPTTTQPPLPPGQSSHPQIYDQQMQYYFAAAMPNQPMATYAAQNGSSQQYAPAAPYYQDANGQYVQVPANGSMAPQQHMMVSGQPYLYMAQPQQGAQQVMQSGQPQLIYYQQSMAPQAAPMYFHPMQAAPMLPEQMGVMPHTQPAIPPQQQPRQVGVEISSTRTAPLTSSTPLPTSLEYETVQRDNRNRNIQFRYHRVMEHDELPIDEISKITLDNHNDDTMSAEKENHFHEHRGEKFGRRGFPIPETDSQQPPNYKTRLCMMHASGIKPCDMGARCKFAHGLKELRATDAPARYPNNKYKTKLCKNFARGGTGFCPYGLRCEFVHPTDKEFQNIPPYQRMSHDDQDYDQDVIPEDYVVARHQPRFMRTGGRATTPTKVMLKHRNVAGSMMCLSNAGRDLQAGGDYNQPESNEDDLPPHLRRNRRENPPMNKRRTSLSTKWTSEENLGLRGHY

Cytochrome P450 2D6 = Cytochrome P450 2D6 (Homo sapiens, UniProt P10635);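 further: CYP2D6 member of a cytochrome P450 panel assay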
Cytochrome P450 2D6, sequence (P10635 whole entry): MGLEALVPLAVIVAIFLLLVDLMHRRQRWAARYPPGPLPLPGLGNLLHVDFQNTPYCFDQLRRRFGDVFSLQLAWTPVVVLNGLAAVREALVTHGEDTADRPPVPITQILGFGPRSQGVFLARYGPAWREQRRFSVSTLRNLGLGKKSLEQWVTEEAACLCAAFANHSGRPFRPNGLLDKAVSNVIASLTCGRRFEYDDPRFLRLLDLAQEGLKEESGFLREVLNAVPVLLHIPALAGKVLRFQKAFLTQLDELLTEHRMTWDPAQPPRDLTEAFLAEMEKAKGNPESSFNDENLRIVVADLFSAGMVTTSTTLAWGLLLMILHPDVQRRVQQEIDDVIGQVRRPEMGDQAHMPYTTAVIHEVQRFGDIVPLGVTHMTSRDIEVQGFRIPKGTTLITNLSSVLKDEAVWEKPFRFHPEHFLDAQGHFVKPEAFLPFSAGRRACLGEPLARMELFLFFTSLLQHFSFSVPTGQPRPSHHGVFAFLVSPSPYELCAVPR

[15] = target: T5, Histone-lysine N-methyltransferase NSD2 (Homo sapiens, UniProt O96028); assay type: biochemical
T5 sequence (O96028 whole entry): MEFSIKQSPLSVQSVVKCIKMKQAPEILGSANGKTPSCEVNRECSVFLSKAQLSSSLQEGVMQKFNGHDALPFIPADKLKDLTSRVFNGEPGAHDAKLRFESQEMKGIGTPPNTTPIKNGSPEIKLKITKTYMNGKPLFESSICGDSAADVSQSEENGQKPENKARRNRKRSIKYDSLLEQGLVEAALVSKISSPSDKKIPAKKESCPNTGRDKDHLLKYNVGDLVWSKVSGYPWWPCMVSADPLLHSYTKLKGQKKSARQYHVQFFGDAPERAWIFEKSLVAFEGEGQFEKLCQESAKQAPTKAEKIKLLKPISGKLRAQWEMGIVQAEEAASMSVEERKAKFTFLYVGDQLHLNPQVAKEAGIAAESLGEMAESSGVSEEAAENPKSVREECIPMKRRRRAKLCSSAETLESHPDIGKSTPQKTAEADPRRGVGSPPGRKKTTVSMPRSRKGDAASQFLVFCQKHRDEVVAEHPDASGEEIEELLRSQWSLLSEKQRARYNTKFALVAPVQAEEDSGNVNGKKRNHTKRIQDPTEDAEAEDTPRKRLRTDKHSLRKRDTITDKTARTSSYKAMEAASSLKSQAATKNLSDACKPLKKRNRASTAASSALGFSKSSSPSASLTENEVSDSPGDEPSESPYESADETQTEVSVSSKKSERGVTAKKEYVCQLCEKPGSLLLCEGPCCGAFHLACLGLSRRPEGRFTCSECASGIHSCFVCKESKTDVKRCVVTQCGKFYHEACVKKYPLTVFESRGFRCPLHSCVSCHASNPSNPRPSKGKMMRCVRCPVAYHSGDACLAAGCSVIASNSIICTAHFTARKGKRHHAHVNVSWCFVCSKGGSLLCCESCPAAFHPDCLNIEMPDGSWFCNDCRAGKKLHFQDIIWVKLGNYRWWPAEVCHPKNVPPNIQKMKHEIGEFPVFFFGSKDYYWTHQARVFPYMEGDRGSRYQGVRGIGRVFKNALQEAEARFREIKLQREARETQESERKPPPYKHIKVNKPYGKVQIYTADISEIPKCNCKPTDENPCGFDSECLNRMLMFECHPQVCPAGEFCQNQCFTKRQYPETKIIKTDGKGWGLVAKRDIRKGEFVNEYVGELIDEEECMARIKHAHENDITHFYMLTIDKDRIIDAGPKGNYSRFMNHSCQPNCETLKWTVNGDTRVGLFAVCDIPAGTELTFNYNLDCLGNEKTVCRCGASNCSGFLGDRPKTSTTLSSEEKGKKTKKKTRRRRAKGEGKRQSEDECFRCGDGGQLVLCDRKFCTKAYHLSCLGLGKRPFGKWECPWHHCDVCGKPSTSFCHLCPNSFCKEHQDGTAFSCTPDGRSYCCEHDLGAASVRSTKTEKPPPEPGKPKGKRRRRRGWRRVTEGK

[16] = target: T6, Short transient receptor potential channel 4 (Mus musculus, UniProt Q9QUQ5); test: calcium entry via TRPC4 opening agents – cell-based, HEK293 TRPC4/mu-opioid, Fluo-4 calcium, dose response (AID 434937); assay type: functional
T6 sequence (Q9QUQ5 whole entry): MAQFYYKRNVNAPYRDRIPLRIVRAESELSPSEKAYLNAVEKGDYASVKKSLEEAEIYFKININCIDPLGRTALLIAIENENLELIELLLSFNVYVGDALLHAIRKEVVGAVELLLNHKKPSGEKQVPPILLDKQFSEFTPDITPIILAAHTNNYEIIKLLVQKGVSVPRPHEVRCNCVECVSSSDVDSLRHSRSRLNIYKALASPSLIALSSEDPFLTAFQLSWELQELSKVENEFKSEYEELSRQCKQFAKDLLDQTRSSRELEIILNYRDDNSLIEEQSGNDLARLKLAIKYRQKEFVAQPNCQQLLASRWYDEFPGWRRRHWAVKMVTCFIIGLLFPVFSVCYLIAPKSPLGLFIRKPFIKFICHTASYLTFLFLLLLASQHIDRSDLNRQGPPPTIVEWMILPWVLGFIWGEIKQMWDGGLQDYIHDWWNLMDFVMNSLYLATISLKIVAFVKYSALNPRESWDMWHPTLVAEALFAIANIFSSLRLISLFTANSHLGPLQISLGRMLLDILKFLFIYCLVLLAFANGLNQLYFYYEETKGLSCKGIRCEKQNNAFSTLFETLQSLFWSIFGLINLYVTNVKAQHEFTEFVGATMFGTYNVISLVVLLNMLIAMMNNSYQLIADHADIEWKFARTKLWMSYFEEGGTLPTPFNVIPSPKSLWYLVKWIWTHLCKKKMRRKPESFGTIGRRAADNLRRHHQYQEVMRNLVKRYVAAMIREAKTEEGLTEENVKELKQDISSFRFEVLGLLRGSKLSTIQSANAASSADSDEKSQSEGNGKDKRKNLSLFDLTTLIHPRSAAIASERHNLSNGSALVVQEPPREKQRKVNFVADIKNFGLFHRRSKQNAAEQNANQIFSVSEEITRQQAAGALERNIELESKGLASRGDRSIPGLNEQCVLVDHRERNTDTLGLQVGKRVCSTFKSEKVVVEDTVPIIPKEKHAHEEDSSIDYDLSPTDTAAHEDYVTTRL

SMILES: Cc1ccc(N(C(=O)c2snc(C(N)=O)c2N)C(C(=O)NCCC(C)C)c2ccco2)cc1 (configuration not stated)
- IC50 [1]: 10.9 µM (active)
- IC50 (Bcl-2-related protein A1): > 20 µM (inactive)
- EC50 [2]: 1.1 µM (active)
- EC50 [3]: > 60 µM (not active)
- IC50 [4]: 17 µM (active)

- IC50 [5]: > 100 µM (active)
SMILES: O=c1cc(O)nc(SCc2ccccc2Cl)[nH]1

- IC50 [5]: > 100 µM (active)
SMILES: CN1c2ccsc2/C(=N/NC(=O)c2c(F)cccc2F)CS1(=O)=O

SMILES: COc1ccc2c3c([nH]c2c1)[C@H](CO)N(C(=O)Nc1ccc(F)cc1)CC31CCN(Cc2cc(-c3ccccc3)on2)CC1
- AC50 [6]: 0.876 µM (active)
- AC50 [7]: 1.47 µM (active)
- AC50 [8]: 30.3 µM (active)
- AC50 [9]: 0.452 µM (active)
- AC50 [10]: 1.43 µM (active)

SMILES: O=C(O)c1cc2nc(-c3cccs3)cc(C(F)(F)F)n2n1
- IC50 [11]: > 100 µM (inactive)
- IC50 [12]: 12.1 µM (active)

- IC50 [1]: > 20 µM (inactive)
- IC50 (Bcl-2-related protein A1): > 20 µM (inactive)
- IC50 [4]: 18.4 µM (active)
SMILES: Cc1ccc2cc3c(nc2c1)N(c1ccccc1)CC3

- AC50 (Cytochrome P450 2C9): inconclusive
SMILES: Clc1ccc(CN2CCCN(Cc3ccc(Cl)cc3)C2c2cc3ccccc3c3ccccc23)cc1

SMILES: C=CC[n+]1c2n(c3ccccc3c1=O)CCCCC2
- IC50 [11]: 6.84 µM (active)
- IC50 [12]: 3.57 µM (active)

SMILES: O=C(O)c1cccc(-n2cccc2/C=C2\NC(=O)N(Cc3ccc(F)cc3)C2=O)c1
- EC50 [13]: > 300 µM (not active)
- IC50 [11]: 29.7 µM (active)
- EC50 [14]: > 150 µM (not active)
- IC50 [12]: 11.4 µM (active)

- AC50 (Cytochrome P450 2C9): inconclusive
- AC50 (Cytochrome P450 2D6): 28.2 µM (inconclusive)
SMILES: COc1cccc(C(=O)Nc2cc(C(F)(F)F)ccc2Cl)c1

- IC50 [1]: 18.1 µM (active)
- IC50 (Bcl-2-related protein A1): > 20 µM (inactive)
- IC50 [4]: 19.1 µM (active)
SMILES: O=C1c2cccc3cccc(c23)C(=O)N1Cc1cccnc1

- IC50 [5]: > 100 µM (active)
SMILES: CN1CCN(C(=O)c2ccc(N(C)S(=O)(=O)c3cccs3)cc2)CC1

SMILES: C[C@@H]1CN([C@H](C)CO)C(=O)c2cccc(NC(=O)c3nc4ccccc4s3)c2O[C@H]1CN(C)C(=O)NC1CCCCC1
- AC50 [6]: 0.152 µM (active)
- AC50 [7]: 0.114 µM (active)
- AC50 [8]: > 100 µM (inactive)
- AC50 [9]: 0.196 µM (active)
- AC50 [10]: 2.73 µM (active)

- IC50 [1]: 8.19 µM (active)
- IC50 (Bcl-2-related protein A1): > 20 µM (inactive)
- IC50 [4]: 7.29 µM (active)
SMILES: Cc1ccc(C(=O)NNC(=O)c2nn(-c3ccc(F)cc3)ccc2=O)cc1

- IC50 [1]: 8.28 µM (active)
- IC50 (Bcl-2-related protein A1): 5.82 µM (active)
- EC50 [13]: > 300 µM (not active)
- EC50 [14]: > 300 µM (not active)
- IC50 [4]: 9 µM (active)
SMILES: Nc1ccc2[nH]c(-c3cccc(-c4nc5cc(N)ccc5[nH]4)n3)nc2c1

- AC50 [15]: > 20 µM (inactive)
- EC50 [16]: 4.73 µM (active)
SMILES: CNCCCOc1ccc2c(c1)CCC2

- IC50 [5]: > 100 µM (active)
SMILES: O=C(NCc1ccco1)C1CCCN(S(=O)(=O)c2cccc3nsnc23)C1 (configuration not stated)

- IC50 [5]: > 100 µM (active)
SMILES: Nc1nc(SCc2nc(-c3ccccc3)no2)nc(O)c1-c1ccccc1

SMILES: N#Cc1ccc(-c2ccc([C@@H]3[C@@H]4CN(C(=O)C5CCCC5)C[C@H]3N4)cc2)cc1
- AC50 [6]: 3.53 µM (active)
- AC50 [7]: 3.48 µM (active)
- AC50 [8]: 51 µM (active)
- AC50 [9]: 2.25 µM (active)
- AC50 [10]: 2.72 µM (active)
